Data published in US20240148733A1, “COMBINATION THERAPY” (Genentech, Inc., priority 2021, published 2024).

What was measured:
Test in all cases: Drug combination assay (CellTiter-Glo cell viability)
Assay type in all cases: cell-based
Conditions in all cases: six days, 96-wells
H2030 cells (KRAS G12C) = system: H2030 cells (KRAS G12C)
Method: (§1) Cells were seeded in either 96-well or 384-well plates 16 h before treatment at a density of 1000 cells per well. Then, cells were treated with varying concentrations of compound(s) as indicated in FIGS. 1-8 (384-wells) and FIGS. 10-105 (96-wells), either a single agent or in combination, for six days. The relative number of viable cells was estimated using CellTiter-Glo Luminescent Cell Viability Assay (Promega, G7573). Total luminescence was detected on a Wallac Multilabel Reader (Perkin-Elmer).

[1] = system: H358 parental cells (KRAS G12C)
Method: as §1

[2] = system: H358 resistant cells (KRAS G12C)
Method: as §1

[3] = combination with Compound K1 (a KRAS inhibitor)
[4] = combination with Compound K2 (a KRAS inhibitor)
[5] = combination with Compound K3 (a KRAS inhibitor)
[6] = combination with Compound K4 (a KRAS inhibitor)

Structure (SMILES) | % inhibition of H2030 cells (KRAS G12C) (H2030 cells (KRAS G12C); [3]) | % inhibition of H2030 cells (KRAS G12C) (H2030 cells (KRAS G12C); [4]) | % inhibition of H2030 cells (KRAS G12C) (H2030 cells (KRAS G12C); [5]) | % inhibition of H2030 cells (KRAS G12C) (H2030 cells (KRAS G12C); [6]) | % inhibition of H358 parental cells (KRAS G12C) [1, 3] | % inhibition of H358 parental cells (KRAS G12C) [1, 4] | % inhibition of H358 parental cells (KRAS G12C) [1, 5] | % inhibition of H358 parental cells (KRAS G12C) [1, 6] | combination effect on cell viability (qualitative) [2, 3] | combination effect on cell viability (qualitative) [2, 4] | combination effect on cell viability (qualitative) [2, 5] | combination effect on cell viability (qualitative) [2, 6]
Cc1nccnc1-c1nn2c(=O)cc(-c3ccc(C4CCCCC4)cc3)[nH]c2c1C(=O)N1C[C@H](CF)[C@@H]1C (racemic) [Compound T9, 5-(4-cyclohexylphenyl)-2-(3-methylpyrazin-2-yl)-3-[rac-(2S,3S)-3-(fluoromethyl)-2-methyl-azetidine-1-carbonyl]-4H-pyrazolo[1,5-a]pyrimidin-7-one] | sensitizes cells resistant to Compound K1 | sensitizes cells resistant to Compound K2 | sensitizes cells resistant to Compound K3 | sensitizes cells resistant to Compound K4 | sensitizes cells resistant to Compound K1 | sensitizes cells resistant to Compound K2 | sensitizes cells resistant to Compound K3 | sensitizes cells resistant to Compound K4 | sensitizes cells resistant to Compound K1 | sensitizes cells resistant to Compound K2 | sensitizes cells resistant to Compound K3 | sensitizes cells resistant to Compound K4
COc1cnc(C(=O)NCc2cccc(CC(=O)N(C)CCOCCOCCOCCOCCOc3ccc4c(c3)C(=O)N(C3CCC(=O)NC3=O)C4=O)c2)cc1/C=C/[C@H]1CC[C@H](C(F)(F)F)CC1 (stereo partly drawn) [Compound T5, N-[[3-[2-[2-[2-[2-[2-[2-[2-(2,6-dioxo-3-piperidyl)-1,3-dioxo-isoindolin-5-yl]oxyethoxy]ethoxy]ethoxy]ethoxy]ethyl-methyl-amino]-2-oxo-ethyl]phenyl]methyl]-5-methoxy-4-[rac-(E)-2-[4-(trifluoromethyl)cyclohexyl]vinyl]pyridine-2-carboxamide] | sensitizes cells resistant to Compound K1 | sensitizes cells resistant to Compound K2 | sensitizes cells resistant to Compound K3 | sensitizes cells resistant to Compound K4 | sensitizes cells resistant to Compound K1 | sensitizes cells resistant to Compound K2 | sensitizes cells resistant to Compound K3 | sensitizes cells resistant to Compound K4 | sensitizes cells resistant to Compound K1 | sensitizes cells resistant to Compound K2 | sensitizes cells resistant to Compound K3 | sensitizes cells resistant to Compound K4
C[C@@H](NC(=O)c1ccc2c(Oc3ccc(C(F)(F)F)cc3)cccc2c1)c1cccc(N)n1 [Compound T6, N-[(1R)-1-(6-amino-2-pyridyl)ethyl]-5-[4-(trifluoromethyl)phenoxy]naphthalene-2-carboxamide] | sensitizes cells resistant to Compound K1 | sensitizes cells resistant to Compound K2 | sensitizes cells resistant to Compound K3 | sensitizes cells resistant to Compound K4 | sensitizes cells resistant to Compound K1 | sensitizes cells resistant to Compound K2 | sensitizes cells resistant to Compound K3 | sensitizes cells resistant to Compound K4 | sensitizes cells resistant to Compound K1 | sensitizes cells resistant to Compound K2 | sensitizes cells resistant to Compound K3 | sensitizes cells resistant to Compound K4
